In ChEMBL document CHEMBL1143799, “Synthesis and primary cytotoxicity evaluation of new imidazo[2,1-b]thiazole derivatives” (2007):

Assays:
Assay type in all cases: functional
SF-295 = assay: Growth inhibition of human SF295 cells after 48 hrs by SRB protein assay; conditions: SF-295, 48 h
MCF7 = assay: Growth inhibition of human MCF7 cells after 48 hrs by SRB protein assay; conditions: MCF7, 48 h
NCI-H23 = assay: Growth inhibition of human NCI-H23 cells after 48 hrs by SRB protein assay; conditions: NCI-H23, 48 h
PC-3 = assay: Growth inhibition of human PC3 cells after 48 hrs by SRB protein assay; conditions: PC-3, 48 h
SK-MEL-28 = assay: Growth inhibition of human SK-MEL-28 cells after 48 hrs by SRB protein assay; conditions: SK-MEL-28, 48 h
SK-OV-3 = assay: Growth inhibition of human SK-OV-3 cells after 48 hrs by SRB protein assay; conditions: SK-OV-3, 48 h
NCI-H522 = assay: Growth inhibition of human NCI-H522 cells after 48 hrs by SRB protein assay; conditions: NCI-H522, 48 h
DU-145 = assay: Growth inhibition of human DU145 cells after 48 hrs by SRB protein assay; conditions: DU-145, 48 h
NCI-H460 = assay: Growth inhibition of human NCI-H460 cells after 48 hrs by SRB protein assay; conditions: NCI-H460, 48 h
SNB-19 = assay: Growth inhibition of human SNB19 cells after 48 hrs by SRB protein assay; conditions: SNB-19, 48 h
U-251 = assay: Growth inhibition human U251 of cells after 48 hrs by SRB protein assay; conditions: U-251, 48 h
KM12 = assay: Growth inhibition of human KM12 cells after 48 hrs by SRB protein assay; conditions: KM12, 48 h
NCI-H322M = assay: Growth inhibition of human NCI-H322M cells after 48 hrs by SRB protein assay
HOP-92 = assay: Growth inhibition of human HOP92 cells after 48 hrs by SRB protein assay; conditions: HOP-92, 48 h
A549 = assay: Growth inhibition of human A549 cells after 48 hrs by SRB protein assay; conditions: A549, 48 h
BT-549 = assay: Growth inhibition of human BT549 cells after 48 hrs by SRB protein assay; conditions: BT-549, 48 h
HCC 2998 = assay: Growth inhibition of human HCC2998 cells after 48 hrs by SRB protein assay; conditions: HCC 2998, 48 h
MDA-MB-231 = assay: Growth inhibition of MDA-MB-231 cells after 48 hrs by SRB protein assay; conditions: Homo sapiens, MDA-MB-231, 48 h
EKVX = assay: Growth inhibition of human EKVX cells after 48 hrs by SRB protein assay
IGROV-1 = assay: Growth inhibition of human IGROV1 cells after 48 hrs by SRB protein assay; conditions: IGROV-1, 48 h
CCRF-CEM = assay: Growth inhibition of human CCRF-CEM cells after 48 hrs by SRB protein assay
SNB-75 = assay: Growth inhibition of human SNB75 cells after 48 hrs by SRB protein assay; conditions: SNB-75, 48 h
COLO 205 = assay: Growth inhibition of human COLO205 cells after 48 hrs by SRB protein assay; conditions: COLO 205, 48 h
SN12C = assay: Growth inhibition of human SN12C cells after 48 hrs by SRB protein assay
CAKI-1 = assay: Growth inhibition of human CAKI1 cells after 48 hrs by SRB protein assay; conditions: CAKI-1, 48 h
ACHN = assay: Growth inhibition of human ACHN cells after 48 hrs by SRB protein assay
UO-31 = assay: Growth inhibition of human UO31 cells after 48 hrs by SRB protein assay; conditions: UO-31, 48 h
UACC-257 = assay: Growth inhibition of human UACC257 cells after 48 hrs by SRB protein assay; conditions: UACC-257, 48 h
SK-MEL-5 = assay: Growth inhibition of human SK-MEL-5 cells after 48 hrs by SRB protein assay; conditions: SK-MEL-5, 48 h
UACC-62 = assay: Growth inhibition of human UACC62 cells after 48 hrs by SRB protein assay; conditions: UACC-62, 48 h
OVCAR-5 = assay: Growth inhibition of human OVCAR5 cells after 48 hrs by SRB protein assay; conditions: OVCAR-5, 48 h
M14 = assay: Growth inhibition of human M14 cells after 48 hrs by SRB protein assay; conditions: M14, 48 h
RPMI-8226 = assay: Growth inhibition of human RPMI8226 cells after 48 hrs by SRB protein assay; conditions: RPMI-8226, 48 h
SF-539 = assay: Growth inhibition of human SF539 cells after 48 hrs by SRB protein assay; conditions: SF-539, 48 h
OVCAR-8 = assay: Growth inhibition of human OVCAR8 cells after 48 hrs by SRB protein assay; conditions: OVCAR-8, 48 h
[1] = Growth inhibition of human 786O cells after 48 hrs by SRB protein assay; conditions: 786-0, 48 h
T47D = assay: Growth inhibition of human T47D cells after 48 hrs by SRB protein assay
RXF 393 = assay: Growth inhibition of human RXF393 cells after 48 hrs by SRB protein assay; conditions: RXF 393, 48 h
MOLT-4 = assay: Growth inhibition of human MOLT4 cells after 48 hrs by SRB protein assay; conditions: MOLT-4, 48 h

COc1cccc(OC)c1/C=N/NC(=O)Cc1csc2nc(-c3ccc(Br)cc3)cn12
GI50 (SF-295): 12.3 µM
TGI (SF-295; read-out: Log TGI (converted)): 34.7 µM
GI50 (MCF7): 29.5 µM
TGI (MCF7; read-out: Log TGI (converted)): > 100 µM
GI50 (NCI-H23): 19.5 µM
TGI (NCI-H23; read-out: Log TGI (converted)): 52.5 µM
GI50 (PC-3): 13.5 µM
TGI (PC-3; read-out: Log TGI (converted)): 93.3 µM
GI50 (SK-MEL-28): 41.7 µM
TGI (SK-MEL-28; read-out: Log TGI (converted)): > 100 µM
GI50 (SK-OV-3): 57.5 µM
TGI (SK-OV-3; read-out: Log TGI (converted)): > 100 µM
GI50 (NCI-H522): 22.9 µM
TGI (NCI-H522; read-out: Log TGI (converted)): > 100 µM
GI50 (DU-145): 17.8 µM
TGI (DU-145; read-out: Log TGI (converted)): 47.9 µM
GI50 (NCI-H460): > 100 µM
TGI (NCI-H460; read-out: Log TGI (converted)): > 100 µM
GI50 (SNB-19): 31.6 µM
TGI (SNB-19; read-out: Log TGI (converted)): > 100 µM
GI50 (U-251): 13.8 µM
TGI (U-251; read-out: Log TGI (converted)): 31.6 µM
GI50 (KM12): 8.91 µM
TGI (KM12; read-out: Log TGI (converted)): > 100 µM
GI50 (NCI-H322M): 14.8 µM
TGI (NCI-H322M; read-out: Log TGI (converted)): 61.7 µM
GI50 (HOP-92): 13.8 µM
TGI (HOP-92; read-out: Log TGI (converted)): 35.5 µM
GI50 (A549): 11.5 µM
TGI (A549; read-out: Log TGI (converted)): 38.9 µM
GI50 (BT-549): 12.9 µM
TGI (BT-549; read-out: Log TGI (converted)): 33.9 µM
GI50 (HCC 2998): 10 µM
TGI (HCC 2998; read-out: Log TGI (converted)): 34.7 µM
GI50 (MDA-MB-231): 16.2 µM
TGI (MDA-MB-231; read-out: Log TGI (converted)): 40.7 µM
GI50 (EKVX): 17 µM
TGI (EKVX; read-out: Log TGI (converted)): 57.5 µM
GI50 (IGROV-1): 3.98 µM
TGI (IGROV-1; read-out: Log TGI (converted)): 26.9 µM
GI50 (CCRF-CEM): 9.55 µM
TGI (CCRF-CEM; read-out: Log TGI (converted)): > 100 µM
GI50 (SNB-75): 24 µM
TGI (SNB-75; read-out: Log TGI (converted)): 66.1 µM
GI50 (COLO 205): 35.5 µM
TGI (COLO 205; read-out: Log TGI (converted)): > 100 µM
GI50 (SN12C): 20.9 µM
TGI (SN12C; read-out: Log TGI (converted)): 49 µM
GI50 (CAKI-1): 12.6 µM
TGI (CAKI-1; read-out: Log TGI (converted)): 33.9 µM
GI50 (ACHN): 17 µM
TGI (ACHN; read-out: Log TGI (converted)): 34.7 µM
GI50 (UO-31): 60.3 µM
TGI (UO-31; read-out: Log TGI (converted)): > 100 µM
GI50 (UACC-257): 24 µM
TGI (UACC-257; read-out: Log TGI (converted)): 97.7 µM
GI50 (SK-MEL-5): 8.91 µM
TGI (SK-MEL-5; read-out: Log TGI (converted)): 42.7 µM
GI50 (UACC-62): 12 µM
TGI (UACC-62; read-out: Log TGI (converted)): 27.5 µM
GI50 (OVCAR-5): 50.1 µM
TGI (OVCAR-5; read-out: Log TGI (converted)): > 100 µM
GI50 (M14): 15.1 µM
TGI (M14; read-out: Log TGI (converted)): 72.4 µM
GI50 (RPMI-8226): 10.2 µM
TGI (RPMI-8226; read-out: Log TGI (converted)): > 100 µM
GI50 (SF-539): 11.2 µM
TGI (SF-539; read-out: Log TGI (converted)): 24.5 µM
GI50 (OVCAR-8): 11.5 µM
TGI (OVCAR-8; read-out: Log TGI (converted)): 38 µM
GI50 [1]: 26.3 µM
TGI ([1]; read-out: Log TGI (converted)): > 100 µM
GI50 (T47D): 40.7 µM
TGI (T47D; read-out: Log TGI (converted)): > 100 µM
GI50 (RXF 393): 19.1 µM
TGI (RXF 393; read-out: Log TGI (converted)): 67.6 µM
GI50 (MOLT-4): 3.47 µM
TGI (MOLT-4; read-out: Log TGI (converted)): 8.13 µM
